The values that follow come from the PolyMetriX glass transition set.

On to `*/C(C#N)=C(\C#N)N1C(=O)c2ccc(C(=O)c3ccc(-c4ccc5c(c4)C(=O)N(*)C5=O)cc3)cc2C1=O` (repeat unit), for which the glass transition temperature worked out at 249.00 °C.

On to `*CCOCCOCCN1C(=O)c2ccc(C(=O)Oc3ccc(-c4ccc(OC(=O)c5ccc6c(c5)C(=O)N(*)C6=O)cc4)cc3)cc2C1=O` (repeat unit), for which the glass transition temperature stood at 109.00 °C. In the case of `*OP(=O)(Oc1c(Cl)c(Cl)c(*)c(Cl)c1Cl)Oc1c(Cl)c(Cl)c(Cl)c(Cl)c1Cl` (repeat unit) it was 133.00 °C; in that of `*OP(=O)(Oc1ccc(Cl)cc1)Oc1c(Cl)c(Cl)c(*)c(Cl)c1Cl` (repeat unit), 119.00 °C; in that of `*OP(=O)(Oc1ccc(OC)cc1)Oc1c(Br)cc(C(c2cc(Br)c(*)c(Br)c2)(C(F)(F)F)C(F)(F)F)cc1Br` (repeat unit), 151.00 °C. In the case of `*OP(=O)(Oc1ccccc1)Oc1c(Cl)c(Cl)c(*)c(Cl)c1Cl` (repeat unit) it was 79.00 °C. In the case of `*O[Si](*)(C)CCCCCCCCCCCOc1ccc(/C=C/c2ccc(OCCCC)cc2)cc1` (repeat unit) it was -33.00 °C; in that of `*O[Si](*)(C)CCCCCCCCCCCn1c2ccccc2c2ccccc21` (repeat unit), -45.00 °C. For `*O[Si](*)(C)CCCCCCCCOc1ccc(C(=O)Oc2ccc(C#N)cc2C)cc1` (repeat unit), the glass transition temperature turned out to be 5.50 °C. In the case of `*O[Si](*)(C)CCCCCCOC(=O)c1cc(OC(=O)c2ccc(OCCOCCOCCOCCOCCOCCOC)cc2)ccc1OC(=O)c1ccc(OCCOCCOCCOCCOCCOCCOC)cc1` (repeat unit) it was -50.00 °C; in that of `*O[Si](*)(C)CCCCCCOc1ccc(C(=O)Oc2ccc(C#N)cc2C)cc1` (repeat unit), 45.00 °C.

In turn, `*O[Si](*)(C)CCCCCCOc1ccc(C(=O)Oc2ccc(OC)cc2)cc1` (repeat unit) gave a glass transition temperature of -2.00 °C. For the molecule `*O[Si](*)(C)CCCCCCn1c2ccccc2c2ccccc21` (repeat unit), the glass transition temperature is -5.00 °C. In the case of `*O[Si](*)(C)CCCCOc1ccc(-c2ccc(C#N)cc2)cc1` (repeat unit) it was 22.50 °C; in that of `*O[Si](*)(C)CCCOC(=O)c1cc(OC(=O)c2ccc(OCCOCCOCCOCCOC)cc2)ccc1OC(=O)c1ccc(OCCOCCOCCOCCOC)cc1` (repeat unit), -37.00 °C; in that of `*O[Si](*)(C)CCCOc1ccc(/N=N/c2ccc(S(=O)(=O)O)cc2)cc1` (repeat unit), 9.20 °C. Then `*O[Si](*)(C)CCCOc1ccc(C(=O)OC2CCC3(C)C(=CCC4C3CCC3(C)C(C(C)CCCC(C)C)CCC43)C2)cc1` (repeat unit), with 61.10 °C.

On to `*O[Si](*)(C)CCCOc1ccc(C(=O)OC2CCC3(C)C(=CCC4C3CCC3(C)C(C(C)CCCC(C)C)CCC43)C2)cc1S(=O)(=O)[O][K]` (repeat unit), for which the glass transition temperature was 112.60 °C.

In turn, `*O[Si](*)(C)CCCOc1ccc(C(=O)Oc2ccc(-c3ccc(OC(=O)CCCCC(=O)OC4CC(C)CCC4C(C)C)cc3)cc2)cc1` (repeat unit) gave a glass transition temperature of 56.80 °C. Then `*O[Si](*)(C)CCCOc1ccc(C(=O)Oc2ccc(-c3ccc(OC(=O)c4ccc(OCC)cc4)cc3)cc2)cc1` (repeat unit), with 74.60 °C.

`*O[Si](*)(C)CCCOc1ccc(N(c2ccc(C)cc2)c2ccc(-c3ccc(N(c4ccccc4)c4ccc(C)cc4)cc3)cc2)cc1` (repeat unit) showed a glass transition temperature of 102.00 °C. In the case of `*O[Si](*)(C)CCCn1c2ccccc2c2ccccc21` (repeat unit) it was 55.5 °C; in that of `*O[Si](*)(C)CCc1cc(C(=O)Oc2ccc(OCCCC)cc2)ccc1-c1ccc(C(=O)Oc2ccc(OCCCC)cc2)cc1` (repeat unit), 96.00 °C. Then `*O[Si](*)(C)CCc1cc(C(=O)Oc2ccc(OCCCC)cc2)ccc1C(=O)Oc1ccc(OCCCC)cc1` (repeat unit), with 92.00 °C; and `*O[Si](*)(C)OCCCCCCCCCCCOc1ccc(C2COC(c3ccc(OC)cc3)OC2)cc1` (repeat unit), with 44.00 °C; and `*O[Si](*)(C)c1ccc(C)cc1` (repeat unit), with -17.00 °C. Then `*O[Si](*)(CCC)CCC` (repeat unit), with -77.50 °C. `*O[Si](*)(CCC)c1ccccc1` (repeat unit) returned a glass transition temperature of 40.60 °C. As to `*O[Si](*)(CCCOCCOCCOCCOCCOC)CCCOCCOCCOCCOCCOC` (repeat unit), the glass transition temperature is -69.80 °C. `*O[Si](*)(CCCOCCOCCOCCOCCOCCOCCOC)CCCOCCOCCOCCOCCOCCOCCOC` (repeat unit): the glass transition temperature is -68.90 °C. In the case of `*O[Si](C)(C)O[Si](C)(C)O[Si](C)(C)O[Si](C)(C)O[Si](C)(C)Oc1c(*)c2ccccc2c2ccccc12` (repeat unit) it was -38.00 °C; in that of `*Oc1c(-c2ccccc2)cc(*)cc1-c1ccc(C(C)(C)C)cc1` (repeat unit), 240.00 °C. Then `*Oc1c(-c2ccccc2)cc(*)cc1-c1ccc(C)cc1` (repeat unit), with 218.00 °C; and `*Oc1c(-c2ccccc2)cc(*)cc1-c1cccc(-c2ccccc2)c1-c1ccccc1` (repeat unit), with 212.00 °C.

Molecule `*Oc1c(-c2ccccc2)cc(*)cc1-c1cccc(C)c1` (repeat unit) displayed a glass transition temperature of 219.00 °C.

On to `*Oc1c(-c2ccccc2)cc(*)cc1-c1cccc2ccccc12` (repeat unit), for which the glass transition temperature stood at 234.00 °C. Regarding `*Oc1c(Br)cc(*)cc1Br` (repeat unit), the glass transition temperature is 196.00 °C. In the case of `*Oc1c(Br)cc(C2(c3cc(Br)c(OC(*)=O)c(Br)c3)CC3CCC2C3)cc1Br` (repeat unit) it was 283.00 °C; in that of `*Oc1c(C(C)C)cc(*)cc1C(C)C` (repeat unit), 152.40 °C. Then `*Oc1c(C)cc(*)cc1C` (repeat unit), with 212.00 °C. Then `*Oc1c(C)cc(*)cc1C(C)CCC` (repeat unit), with 100.00 °C.

In turn, `*Oc1c(C)cc(*)cc1C(C)CCCCCC` (repeat unit) yielded a glass transition temperature of 54.00 °C. As for `*Oc1c(C)cc(*)cc1C(C)CCCCCCCCCCCC` (repeat unit), the glass transition temperature was -10.00 °C.

Molecule `*Oc1c(Cl)cc(*)cc1Br` (repeat unit) returned a glass transition temperature of 188.50 °C. In the case of `*Oc1c(Cl)cc(C(c2cc(Cl)c(OC(*)=O)c(Cl)c2)C(Cl)(Cl)Cl)cc1Cl` (repeat unit) it was 273.00 °C; in that of `*Oc1c(Cl)cc(C2(c3cc(Cl)c(OC(*)=O)c(Cl)c3)CC3CCC2C3)cc1Cl` (repeat unit), 290.00 °C; in that of `*Oc1cc(Br)cc(Br)c1*` (repeat unit), 170.00 °C. In the case of `*Oc1cc(C)c(*)c(C)c1Br` (repeat unit) it was 280.1 °C. The molecule `*Oc1cc(Cl)cc(Cl)c1*` (repeat unit) registered a glass transition temperature of 165.00 °C.

In the case of `*Oc1ccc(-c2ccc(-c3cc(-c4ccccc4)c(-c4ccc(-c5ccc(OC(=O)c6ccc(C(*)=O)cc6-c6ccccc6)cc5)cc4)c(-c4ccccc4)c3-c3ccccc3)cc2)cc1` (repeat unit), the glass transition temperature worked out at 260.00 °C. Then `*Oc1ccc(-c2ccc(OC(*)(Oc3ccccc3)Oc3ccccc3)cc2)cc1` (repeat unit), with 112.00 °C; and `*Oc1ccc(-c2ccc(OC(=O)c3cc(OCCCc4ccccc4)c(C(*)=O)cc3OCCCc3ccccc3)cc2)cc1` (repeat unit), with 72.00 °C. For the molecule `*Oc1ccc(-c2ccc(OC(=O)c3ccc(-c4ccc(C(*)=O)cc4)cc3-c3ccccc3)cc2)cc1` (repeat unit), the glass transition temperature came to 168.00 °C.

In turn, `*Oc1ccc(-c2ccc(OC(=O)c3ccc(C(*)=O)cc3)cc2)cc1-c1ccccc1` (repeat unit) yielded a glass transition temperature of 132.00 °C. In turn, `*Oc1ccc(C(=O)c2ccc(Oc3ccc(C(c4ccc(*)cc4)(C(F)(F)F)C(F)(F)F)cc3)cc2)c2ccccc12` (repeat unit) registered a glass transition temperature of 190.00 °C. Then `*Oc1ccc(C(c2ccc(Oc3ccc(C(=O)c4ccc(*)cc4)cc3)cc2)(C(F)(F)F)C(F)(F)F)cc1` (repeat unit), with 175.00 °C. In the case of `*Oc1ccc(S(=O)(=O)c2ccc(Oc3c(C)cc(C(c4cc(C)c(*)c(C)c4)(C(F)(F)F)C(F)(F)F)cc3C)cc2C(OC)(C(F)(F)F)C(F)(F)F)c(C(OC)(C(F)(F)F)C(F)(F)F)c1` (repeat unit) it was 163.00 °C; in that of `*c1cc(N2C(=O)c3ccc(Oc4cc5ccccc5cc4Oc4ccc5c(c4)C(=O)N(*)C5=O)cc3C2=O)cc(C(F)(F)F)c1` (repeat unit), 250.00 °C; in that of `*c1ccc(C(c2ccc(N3C(=O)c4ccc(Oc5cc6ccccc6cc5Oc5ccc6c(c5)C(=O)N(*)C6=O)cc4C3=O)cc2)(C(F)(F)F)C(F)(F)F)cc1` (repeat unit), 256.00 °C. Then `*c1ccc(Oc2ccc(C(=O)c3ccc(Oc4ccc(N5C(=O)c6ccc(S(=O)(=O)c7ccc8c(c7)C(=O)N(*)C8=O)cc6C5=O)cc4)cc3)cc2)cc1` (repeat unit), with 275.50 °C.

`*c1ccc(Oc2ccc(Oc3ccc(N4C(=O)c5ccc(Oc6cc7ccccc7cc6Oc6ccc7c(c6)C(=O)N(*)C7=O)cc5C4=O)cc3)cc2)cc1` (repeat unit) displayed a glass transition temperature of 224.50 °C. In the case of `*c1ccc(Oc2cccc(N3C(=O)c4ccc(Oc5cc6ccccc6cc5Oc5ccc6c(c5)C(=O)N(*)C6=O)cc4C3=O)c2)cc1` (repeat unit) it was 226.00 °C; in that of `*c1ccc2c(c1)C(=O)N(c1ccc(Oc3ccc(C(=O)c4ccc(Oc5ccc(N6C(=O)c7ccc(C(*)(C(F)(F)F)C(F)(F)F)cc7C6=O)cc5)cc4)cc3)cc1)C2=O` (repeat unit), 266.00 °C.
